Laboratory results from a melting point compilation (Tetko et al.; mined from patent text by program, amines drawn as free bases though some values may be those of a salt).

Row | melting point | Structure (SMILES)
1 | 157 to 158 °C | Cc1cc2ccccc2n1Nc1ccncc1F
2 | 205 to 207 °C | CON=C1CN(c2c(F)cc3c(=O)c(C(=O)O)cn(C4CC4)c3c2F)CC12CNC2
3 | 269 to 270 °C | COc1cc(Nc2c(C#N)cnc3cc(-c4cc5ccccc5s4)ccc23)c(Cl)cc1Cl
4 | 74 to 77 °C | COc1ccc(C(=O)c2c(-c3ccc(OCCN4CCCC4)cc3)sc3cc(OCc4ccccc4)ccc23)cc1OC
5 | 132 to 134 °C | CSC[C@H](C)NC(=O)c1c(I)cccc1C(=O)O
6 | 118 to 119 °C | N#Cc1ccccc1SC1SCC(O)C(O)C1O (stereo unspecified)
7 | 168 to 170 °C | Cc1cc(-c2ccnc(C(N)=O)c2)n(-c2ccc(F)cc2)n1
8 | 79 to 80.5 °C | COC(=O)N=C(NC(=O)NC1CCCCC1)OC
9 | > 350 °C | O=[N+]([O-])c1cc(C=Cc2ccncc2)cc(O)c1O
10 | 213 °C | N#CC(Cc1ccc(Cl)cc1)c1c(Cl)cc(N2N=CCNC2=O)cc1Cl (stereo unspecified)
11 | 72 °C | COC(=O)c1ccc(COC2OC(CO)C(O)C(O)C2O)o1 (stereo unspecified)
12 | 250 to 251 °C | CC1(C)OC(=S)Nc2ccc(-c3cc(C#N)ccc3F)cc21
13 | 114 to 116 °C | O=C(Cc1ccc(C(F)(F)F)cn1)c1ccc(Cl)cc1
14 | 153 to 155 °C | CC(C)(C)c1cc(-c2nc(CS(C)(=O)=O)no2)cc(C(C)(C)C)c1O
15 | 68 °C | CCCCCCCc1ccc(C(=O)Cc2cccc(C#N)c2)cc1
16 | 210 to 215 °C | CC(C(=O)NN1CCOCC1)C(C#N)(c1ccccc1)c1ccccc1 (stereo unspecified)
17 | 102 to 103 °C | O=C(Nc1cccc(Br)c1)N(Cc1ccccc1)Cc1ccccc1
18 | 78 to 85 °C | C=CCn1c2ccccc2c2c(N)c(C(=O)OC)c(C)nc21
19 | 153 °C | Cc1cc(O)n(C2CCCCC2)n1
20 | 58 to 61 °C | NNC(=O)OCCOc1ccc(C(=O)c2ccccc2)c(O)c1
21 | 133 to 135 °C | CC(=NOCCOc1ccc(CC2SC(=O)NC2=O)cc1)c1cccc(O)c1 (stereo unspecified)
22 | 163 to 164 °C | CC(=O)OC(c1nc(C)c(C)s1)(c1nc(C)c(C)s1)C(F)(F)F
23 | 44 to 47 °C | CCOCNC(=O)c1cc(OC)cc(Oc2cccc(C(F)(F)F)c2)n1
24 | 111 to 113 °C | CCCCCCC(=O)CCCn1c(CCC)nc2c(N)nc3ccccc3c21

Row | melting point | Structure (SMILES)
25 | 104 to 106 °C | CCCc1nc(N2CCc3ccccc3CC2)c(C#N)c(=O)n1CC(F)(F)F
26 | 238 to 242 °C | Nc1nc2ccc3cc(S(=O)(=O)Nc4ccc(C(=O)N[C@@H](CCC(=O)O)C(=O)O)cc4)c(Br)cc3c2c(=O)[nH]1
27 | 159 °C | Cc1c(O)c(C)c(CS)c(C)c1CS
28 | 108 to 110 °C | CC1(C)OCc2c1nc1ccccc1c2Cl
29 | 130 to 132 °C | COc1cc2c(cc1OC)N(C(=O)c1ccc(-c3ccccc3C(F)(F)F)c(C)c1)Cc1ccc(C(=O)N(CCO)CCO)n1C2
30 | 177 to 182 °C | CCCCc1nc2c(N)nc3ccc(O)cc3c2n1CCCCNC(=O)N1CCOCC1
31 | 177 to 180 °C | CCS(=O)(=O)Nc1ccc(S(=O)(=O)C=CC#N)cc1
32 | 172 to 174 °C | COc1cccc(Cl)c1C1C(=O)NC(C)(C(C)C)C1=O (stereo unspecified)
33 | 103 to 104 °C | NS(=O)(=O)Oc1ccc(Cl)cc1
34 | 206 °C | CC(=O)Nc1cscc1C(=O)O
35 | 106 to 109 °C | Cn1ncc2c(c1=O)SCCNC2Cc1ccc(Cl)cc1 (stereo unspecified)
36 | 250 °C | CC(=O)NCCNc1nc(-c2ccccc2)nc2[nH]c(C(=O)N3CCOCC3)cc12
37 | 93 to 95 °C | CNC(=O)N(C)C(=O)Nc1ccccc1
38 | 90 to 91.5 °C | COC(=O)[C@H](Cc1cc(Cl)c(OCCCNC(=O)OC(C)(C)C)c(Cl)c1)NC(=O)C(F)(F)F
39 | 82 to 83 °C | CCOC(=O)c1cc2cccc(OCc3ccccc3)c2[nH]1
40 | 68 to 70 °C | CCCc1cc(OC)c(OC)c(C(=O)NC[C@@H]2CCCN2CC)c1OC
41 | 182 to 184 °C | O=C1C(Nc2ccccc2)=CC(=O)c2ncccc21
42 | 209 to 210 °C | O=C(Nc1ccc2nc(CN3CCN=C3c3ccccc3)ccc2c1)c1ccc(-c2ccc(F)cc2)cc1
43 | 200 to 203 °C | COC(=O)C(C)Oc1ccccc1S(=O)(=O)NC(=O)Nc1nc(C)cc(C)n1 (stereo unspecified)
44 | 120 °C | CCCNC(=O)N1Cc2cccn2-c2ccsc2C1=O
45 | 59 to 61 °C | CN(C(=O)c1ccnc(Cl)c1)c1ccccc1N1CCN(C(=O)OC(C)(C)C)CC1
46 | 166 to 167 °C | CN(C)CCCC1(O)c2ccccc2COc2ccc(C3=NC(C)(C)CO3)cc21 (stereo unspecified)
47 | 124 to 126 °C | COc1cccc(COc2ccc(S(=O)(=O)c3ccc(C)nc3Nc3c(C)cc(C)cc3C)cc2)c1OC
48 | 160 to 161 °C | Cc1ccc(C(=O)c2c(C)cc(CC(=O)O)n2C)cc1

Row | melting point | Structure (SMILES)
49 | 85 to 90 °C | CCOC(=O)c1cnc2c(nc(C)n2C)c1Cl
50 | 181 to 183 °C | COc1ccc(S(=O)(=O)N2CCC3(C=Cc4ccccc43)CC2)cc1
51 | 108 to 110 °C | NC1Cc2ccccc2N(c2ccccc2)C1=O (stereo unspecified)
52 | 146 °C | COC(=O)c1ccccc1S(=O)(=O)NC(=O)n1nc(C)n(C2CCCC2)c1=O
53 | 270 to 272 °C | Cn1nc(S(C)(=O)=O)c(=O)c2ccc(Cl)cc21
54 | 149 °C | CCCN1CCN(c2ncc3c(=O)c(C(=O)O)cn(CC)c3n2)CC1
55 | 45 to 47 °C | BrCCCCCCCOc1ccc2c(c1)OCO2
56 | 114 to 115 °C | COC(=O)N[C@H](C(=O)N[C@@H](Cc1ccccc1)[C@@H](O)CN(Cc1ccc(-c2cncs2)cc1)NC(=O)OC(C)(C)C)C(C)C
57 | 114 °C | O=P(O)(O)Cc1ccc(-c2ccc(CP(=O)(O)O)cc2)cc1
58 | 178 to 181 °C | O=C(O)C1=Cc2cc(CO)ccc2OC1C(F)(F)F (stereo unspecified)
59 | 210 to 212 °C | CC(C)(C)OC(=O)NCc1cccc(Nc2ncnc3[nH]cc(C(=O)c4ccccc4)c23)c1
60 | 126 to 129 °C | Cc1cc2c(o1)c(-c1ccc(COC(=O)CCC(=O)O)o1)nn2Cc1ccccc1
61 | 78 to 80 °C | CCOC(=O)C1=C(C)NC(CSC(=O)c2ccc(N)cc2)=C(C(=O)OCC)C1c1cccc([N+](=O)[O-])c1 (stereo unspecified)
62 | 248 °C | CCCC1=C(C#N)C(c2ccccc2Cl)c2c[nH]nc2N1 (stereo unspecified)
63 | 60 to 62 °C | CCCc1c(OCCCOc2ccc3c(c2CCC)OC(CCC(=O)O)C=C3)ccc(C(C)=O)c1O (stereo unspecified)
64 | 72 to 73 °C | c1ccc(C2SCCCS2)cc1
65 | 222 to 225 °C | NC(=O)CN1C(=O)[C@@H](NC(=O)c2cc3ccccc3[nH]2)[C@H](c2ccccc2)Sc2ccccc21 (relative stereo)
66 | 202 to 205 °C | OC(c1ccncc1)c1c[nH]c(-c2ccc(F)cc2)c1-c1ccncc1 (single isomer, unassigned; (+))
67 | 190 to 192 °C | NC(=O)C1CCN(CC=Cc2ccccc2)CC1
68 | 122 °C | CCCc1nc(SC(F)F)c(C(=O)O)n1Cc1ccc(-c2ccccc2S(=O)(=O)NC(=O)NCc2ccc(F)cc2)cc1
69 | 110 to 112 °C | C=Cc1ccc(COc2ccc(CO)cc2)cc1
70 | 195 °C | O=C1c2ccccc2C(=O)N1CCON=C1c2ccccc2-n2cccc21

Row | Structure (SMILES) | melting point
71 | CCc1nc(C)cn1CC1CC2c3cccc4[nH]cc(c34)CC2N(C)C1 (stereo unspecified) | 172 to 174 °C
